Measurements: article PMC6156138, “Combination of a Latency-Reversing Agent With a Smac Mimetic Minimizes Secondary HIV-1 Infection in vitro” (Frontiers in Microbiology, 2018)

Columns and labels:
Type in all cases: cell-based
[1] = tested on: latent HIV-1-infected ACH-2 cells; assay: HIV reactivation from latent cells: supernatant p24 antigen; settings: for viral production (supernatant p24 antigen levels): day 2, single drug (Figure 1A)
Method: The reactivation of HIV-1 from latently infected cells was determined by the measurement of supernatant p24 antigen and intracellular HIV-1 RNA levels. ACH-2 cells or U1 cells (5 × 10^5 cells/mL) were placed in 96-well plates, and then the cells were incubated with different concentrations of drugs for 24 h to extract RNA and for 48 h to collect the supernatant. The increase in supernatant p24 antigen levels was measured using […] G1200 (Fujirebio, Tokyo, Japan). The total RNA was extracted using an RNeasy Mini Kit (Qiagen, Hilden, Germany), following the manufacturer’s protocols. The cDNA was synthesized using PrimeScript RT Master Mix (Takara Bio, Shiga, Japan), and quantitative real-time PCR analyses for the intracellular HIV-1 RNA were carried out with PowerUp^TM SYBR Green Master Mix (Applied Biosystems, Foster City, CA, United States). The oligonucleotide primers used were as follows: 5′-[…]-3′ (forward) and 5′-[…]-3′ (reverse) for HIV-RNA detection; 5′-[…]-3′ (forward) and 5′-[…]-3′ (reverse) for β-actin. The HIV-RNA expressions were normalized with that of β-actin, which was indicated as the relative quantity, and the increase in HIV-1 RNA levels in the presence of a drug was compared with that without a drug.
FIGURE 1 (A,B) The increase in viral production from ACH-2 cells (A) and U1 cells (B) was examined by supernatant p24 antigen levels on day 2. (C,D) Changes in the intracellular HIV-1 mRNA levels due to treatment with these drugs in ACH-2 cells (C) and U1 cells (D) after 24 h of incubation.
FIGURE 2 (A) Effect of birinapant when combined with TNF-α. The supernatant p24 levels with birinapant (1∼100 nM) in ACH-2 cell culture on day 2 are shown in white bars, and p24 values with birinapant when combined with TNF-α (10 ng/ml) are shown in black bars. (B) HIV-1 production from ACH-2 cells when reactivated by PEP005 (0.05∼50 nM) for 24 h. (C) Changes in the living cell numbers in the presence of drug(s) on days 1, 3, and 5.

cIAP = assay: Determination of cIAP expression (western blotting); settings: ACH-2 cells, 24 h; birinapant 50 nM, PEP005 5 nM, TNF-α 10 ng/ml
Method: ACH-2 cells (1 × 10^6 cells/ml) were treated with different concentrations of the drug for 24 h, and the cells were washed twice with PBS. Cells were homogenized by CelLytic M Cell Lysis Reagent (Sigma-Aldrich, St. Louis, MO, United States) containing a protease inhibitor cocktail (Nacalai Tesque, Kyoto, Japan) and were incubated at room temperature (RT) for 15 min. The cells were then centrifuged at 13,000 rpm for 15 min, and the supernatant of the whole cell lysate was collected. The bicinchoninic acid (BCA) protein assay (Thermo Scientific, Rockford, IL, United States) was used to measure the actual protein amount in the treated and untreated cells. The protein extracts were separated through sodium dodecyl sulfate polyacrylamide gel electrophoresis (SDS-PAGE) and then were blotted onto a Trans Blot Turbo polyvinylidene difluoride (PVDF) membrane (Bio-Rad, Hercules, CA, United States). Protein bands were visualized using 3,3′,5,5′-tetramethylbenzidine (TMB) solution (Wako Pure Chemical). The sources of the antibodies were as follows: c-IAP1 (D5G9), c-IAP2 (58C7), and XIAP (3B6) were purchased from Cell Signaling Technology (Danvers, MA, United States); β-actin (C4) was purchased from Santa Cruz Biotechnology.
Supplementary file Data_Sheet_5.PDF: FIGURE S5 Western blotting (WB) analysis for IAP family proteins in ACH-2 cells. Cells were exposed to birinapant (50 nM) in the presence or absence of PEP005 (5 nM), with TNF-α (10 ng/ml) co-treatment for 24 h, and cell lysates were used for WB analysis. Click here for additional data file.

[2] = tested on: primary CD4+ T-cells from HIV-1-infected patients; assay: HIV-1 reactivation in primary CD4+ T-cells from HIV-1 patients (HIV-1 mRNA); settings: primary CD4+ T-cells from HIV-1-infected patients under cART, 24 h; PEP005 5 nM, birinapant 50 nM
From the text: Peripheral blood samples were collected from HIV-1-infected patients who had been receiving combination antiretroviral therapy (cART) for at least 6 years. All subjects maintained lower viral load (<20 copies/ml) (except for occasional blips) during therapy. CD4^+ T-cell counts in peripheral blood samples ranged from 464–807 cells/mm^3 (average 601 cells/mm^3), and plasma viral loads were <41.3 copies/ml as measured by qPCR (Roche COBAS AmpliPrep/COBAS TaqMan HIV-1 Test version 2.0) at the time of study enrollment. Written informed consent was obtained from all the subjects. […] The total RNA was extracted, cDNA was synthesized, and quantitative real-time PCR analyses for studying the expression of intracellular HIV-1 RNA were carried out as shown above. The HIV RNA copies were calculated using a standard curve obtained from serially diluted HIV-1 plasmid, the normalized values [HIV RNA copies/input RNA (ng)] with a drug were compared with that without a drug, and the relative increase in HIV-1 RNA levels in the presence of a drug was determined.
FIGURE 5 (A) Changes in the HIV-1 mRNA expression on primary CD4^+ T-cells from HIV-1-infected patients in the presence of PEP005 and/or birinapant. […] Statistical significance was determined using Mann-Whitney U test, where P-value < 0.05 was considered to be significant.

| Compound | supernatant HIV-1 p24 levels ([1]; ACH-2 cells, after 24 h, PEP005 5 nM and higher (Figure 2B)) | increase of supernatant HIV-1 p24 levels compared with unstimulated ACH-2 cells ([1]; ACH-2 cells, day 2 (Figure 1A)) [fold] | viral production (supernatant p24 antigen levels) ([1]; ACH-2 cells) | cIAP expression (western blotting) (cIAP) | HIV-1 mRNA expression [2] | decrease of supernatant p24 levels ([1]; ACH-2 cells reactivated by PEP005 (or TNF-α), simultaneously treated with birinapant 50 nM, 24 h) [%] | supernatant p24 antigen levels ([1]; ACH-2 cells, birinapant 1∼100 nM alone, day 2 (Figure 2A)) |
| --- | --- | --- | --- | --- | --- | --- | --- |
| C/C=C(/C)C(=O)O[C@H]1C(C)=C[C@]23C(=O)[C@@H](C=C(CO)[C@@H](O)[C@]12O)[C@H]1[C@@H](C[C@H]3C)C1(C)C [PEP005, ingenol-3-angelate] | reactivated and increased the supernatant HIV-1 p24 levels | > 100 | increased viral production | upregulation of cIAP-1 (and cIAP-2) | elevated the expression of HIV-1 mRNA | – | – |
| CC[C@H](NC(=O)[C@H](C)NC)C(=O)N1C[C@@H](O)C[C@H]1Cc1c(-c2[nH]c3cc(F)ccc3c2C[C@@H]2C[C@H](O)CN2C(=O)[C@H](CC)NC(=O)[C@H](C)NC)[nH]c2cc(F)ccc12 [Birinapant] | – | – | only had a minor effect on HIV-1 reactivation | decreased expression of cIAP | failed to change the HIV-1 mRNA expression in most samples | ~40 | failed to affect supernatant p24 antigen levels |
